# Assay results: ChEMBL document CHEMBL5126540, “Resveratrol-based compounds and neurodegeneration: Recent insight in multitarget therapy” (Eur J Med Chem, 2022)
# Tests used:
# C2C12 = test: Cytotoxicity against mouse C2C12 cells incubated for 24 to 48 hrs by MTT assay; assay type: toxicity, cell-based; conditions: time 24-48 hrs
# PC-12 = test: Neuroprotective activity against H2o2-induced rat PC-12 cells assessed as cell viability preincubated for 2 hrs followed by H2O2 treatment measured after 24 hrs by MTT assay; assay type: functional; conditions: time 26 hrs
# [1] = Antioxidant activity assessed as ABTS radical scavenging activity measured after 6 mins; assay type: functional
# [2] = target: T1, Amine oxidase [flavin-containing] B (Homo sapiens, UniProt P27338); test: Inhibition of human recombinant MAO-B incubated for 15 mins by Amplex red MAO assay
# T1 sequence (P27338 whole entry): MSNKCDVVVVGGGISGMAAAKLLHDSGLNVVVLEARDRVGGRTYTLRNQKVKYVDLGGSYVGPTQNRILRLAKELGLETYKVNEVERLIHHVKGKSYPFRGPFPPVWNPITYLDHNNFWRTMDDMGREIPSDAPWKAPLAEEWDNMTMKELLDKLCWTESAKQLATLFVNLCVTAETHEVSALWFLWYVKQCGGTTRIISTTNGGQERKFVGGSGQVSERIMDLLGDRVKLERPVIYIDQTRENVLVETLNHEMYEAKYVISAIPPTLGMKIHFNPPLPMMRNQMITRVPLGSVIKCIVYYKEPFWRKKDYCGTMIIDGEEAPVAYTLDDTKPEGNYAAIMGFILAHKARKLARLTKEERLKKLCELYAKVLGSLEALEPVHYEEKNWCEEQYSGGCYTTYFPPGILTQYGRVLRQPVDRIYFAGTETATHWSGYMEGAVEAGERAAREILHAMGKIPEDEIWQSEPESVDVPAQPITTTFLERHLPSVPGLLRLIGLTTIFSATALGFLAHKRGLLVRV
# [3] = Antioxidant activity assessed as DPPH radical scavenging activity measured after 20 mins; assay type: functional
# [4] = Antioxidant activity assessed as galvinoxyl radical scavenging activity measured after 20 mins; assay type: functional
# Liver = test: tissue or blood; conditions: Canis lupus familiaris
# Description: Antioxidant activity assessed as Fe2+/ascorbate-induced MDA level in liver mitochondria (unknown origin) preincubated for 30 mins followed by addition of Fe2+/ascorbate measured after 30 mins
# [5] = Antioxidant activity assessed as trolox equivalent of ORAC radical scavenging activity by ORAC-FL assay; assay type: functional
# [6] = target: T1, Amine oxidase [flavin-containing] B
# Description: Inhibition of human recombinant MAO-B incubated for 30 mins by fluorescence based assay
# Acetylcholinesterase [7] = target: T2, Acetylcholinesterase (Homo sapiens, UniProt P22303); test: Inhibition of AChE (unknown origin) incubated for 30 mins by Ellman's method
# [8] = target: T3, Polyunsaturated fatty acid 5-lipoxygenase (Homo sapiens, UniProt P09917); test: Inhibition of human LOX-5 in presence of LOX substrate solution incubated for 10 mins by Varioskan-flash microplate spectrophotometer reader
# T3 sequence (P09917 whole entry): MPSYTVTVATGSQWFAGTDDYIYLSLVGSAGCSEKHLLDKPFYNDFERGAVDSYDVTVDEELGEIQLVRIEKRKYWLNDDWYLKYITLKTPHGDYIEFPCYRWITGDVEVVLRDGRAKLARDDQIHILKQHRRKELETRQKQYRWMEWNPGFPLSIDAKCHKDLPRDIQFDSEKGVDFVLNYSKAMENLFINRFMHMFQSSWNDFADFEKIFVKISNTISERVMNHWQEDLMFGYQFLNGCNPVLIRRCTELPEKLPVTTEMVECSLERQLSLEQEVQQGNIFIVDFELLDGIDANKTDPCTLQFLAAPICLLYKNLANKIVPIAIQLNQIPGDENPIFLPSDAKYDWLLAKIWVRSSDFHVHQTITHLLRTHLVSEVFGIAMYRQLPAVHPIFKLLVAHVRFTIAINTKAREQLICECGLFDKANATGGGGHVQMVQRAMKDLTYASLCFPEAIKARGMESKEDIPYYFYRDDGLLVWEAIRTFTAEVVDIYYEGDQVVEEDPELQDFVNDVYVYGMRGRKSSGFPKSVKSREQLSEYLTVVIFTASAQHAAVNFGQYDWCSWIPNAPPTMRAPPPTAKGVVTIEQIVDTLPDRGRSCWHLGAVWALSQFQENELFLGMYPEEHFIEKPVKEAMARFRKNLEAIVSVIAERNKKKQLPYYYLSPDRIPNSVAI
# Cholinesterase [9] = target: T4, Cholinesterase (Homo sapiens, UniProt P06276)
# Description: Inhibition of BChE (unknown origin) incubated for 30 mins by Ellman's method
# Acetylcholinesterase [10] = target: T2, Acetylcholinesterase; test: Binding affinity to AChE (unknown origin) assessed as inhibition constant
# Carbonic anhydrase 1 = Carbonic anhydrase 1 (Homo sapiens, UniProt P00915); test: Binding affinity to carbonic anhydrase 1 (unknown origin) assessed as inhibition constant
# Carbonic anhydrase 2 = Carbonic anhydrase 2 (Homo sapiens, UniProt P00918)
# Description: Binding affinity to carbonic anhydrase 2 (unknown origin) assessed as inhibition constant
# Cholinesterase [11] = target: T4, Cholinesterase; test: Inhibition of BChE (unknown origin) using BTCI as substrate incubated for 30 mins by Ellman's method
# Acetylcholinesterase [12] = target: T2, Acetylcholinesterase; test: Inhibition of AChE (unknown origin) using ATCI as substrate incubated for 30 mins by Ellman's method
# [13] = Antioxidant activity assessed as DPPH radical scavenging activity measured after 15 mins; assay type: functional
# [14] = target: T5, Amyloid-beta precursor protein (Homo sapiens, UniProt P05067); test: Inhibition of Amyloid beta (1 to 42) (unknown origin) self aggregation at 25 uM by ThT-based fluorescence assay relative to control
# [15] = Antioxidant activity assessed as DPPH radical scavenging activity measured after 45 mins by Varioskan-flash microplate spectrophotometer reader; assay type: functional
# Beta-secretase 1 = Beta-secretase 1 (Homo sapiens, UniProt P56817); test: Inhibition of human recombinant BACE-1 expressed in baculovirus using Rh-EVNLDAEFK-Quencher as substrate incubated for 60 mins by measuring increase in fluorescence intensity using fluorescence microplate reader
# [16] = time 30.0 min
# [17] = Antioxidant activity assessed as ABTS radical scavenging activity; assay type: functional
# [18] = target: T5, Amyloid-beta precursor protein
# [19] = target: T6, Amine oxidase [flavin-containing] A (Homo sapiens, UniProt P21397)
# T6 sequence (P21397 whole entry): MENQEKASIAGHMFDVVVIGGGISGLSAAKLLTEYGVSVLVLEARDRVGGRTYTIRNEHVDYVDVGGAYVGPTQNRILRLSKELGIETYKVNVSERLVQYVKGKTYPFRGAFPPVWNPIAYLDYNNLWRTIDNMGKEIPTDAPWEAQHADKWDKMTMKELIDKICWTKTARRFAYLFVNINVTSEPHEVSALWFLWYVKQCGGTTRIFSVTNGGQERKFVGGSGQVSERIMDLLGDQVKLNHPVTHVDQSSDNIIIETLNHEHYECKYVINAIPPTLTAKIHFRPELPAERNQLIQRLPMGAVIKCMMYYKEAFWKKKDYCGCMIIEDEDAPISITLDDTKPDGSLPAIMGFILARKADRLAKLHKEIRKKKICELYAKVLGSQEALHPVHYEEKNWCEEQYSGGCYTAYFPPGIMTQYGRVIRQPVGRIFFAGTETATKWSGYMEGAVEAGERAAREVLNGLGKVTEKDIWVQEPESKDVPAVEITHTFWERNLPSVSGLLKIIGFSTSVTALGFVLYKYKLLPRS
# Description: Inhibition of human recombinant MAO-A incubated for 15 mins by Amplex red MAO assay
# [20] = target: T5, Amyloid-beta precursor protein; test: Inhibition of HFIP-treated Amyloid beta (1 to 42) (unknown origin) self aggregation at 20 uM incubated for 46 to 48 hrs by fluorescence based assay relative to control; conditions: time 46-48 hrs
# Acetylcholinesterase [21] = target: T2, Acetylcholinesterase; test: Binding affinity to AChE (unknown origin) assessed as inhibition constant using AChI as substrate incubated for 15 mins by Ellman's spectrophotometric method
# [22] = target: T5, Amyloid-beta precursor protein; test: Inhibition of Amyloid beta (1 to 42) (unknown origin) self aggregation at 25 uM incubated for 24 hrs by ThT-based fluorescence assay relative to control
# [23] = Permeability of the compound across blood brain barrier measured after 18 hrs by parallel artificial membrane permeation assay; assay type: ADME; conditions: PAMPA, read-out: permeability
# Acetylcholinesterase [24] = target: Acetylcholinesterase (Electrophorus electricus, UniProt O42275); test: Inhibition of electric eel AChE measured after 2 mins by Ellman's method
# Sequence of Acetylcholinesterase (Electrophorus electricus, UniProt O42275) (O42275 whole entry): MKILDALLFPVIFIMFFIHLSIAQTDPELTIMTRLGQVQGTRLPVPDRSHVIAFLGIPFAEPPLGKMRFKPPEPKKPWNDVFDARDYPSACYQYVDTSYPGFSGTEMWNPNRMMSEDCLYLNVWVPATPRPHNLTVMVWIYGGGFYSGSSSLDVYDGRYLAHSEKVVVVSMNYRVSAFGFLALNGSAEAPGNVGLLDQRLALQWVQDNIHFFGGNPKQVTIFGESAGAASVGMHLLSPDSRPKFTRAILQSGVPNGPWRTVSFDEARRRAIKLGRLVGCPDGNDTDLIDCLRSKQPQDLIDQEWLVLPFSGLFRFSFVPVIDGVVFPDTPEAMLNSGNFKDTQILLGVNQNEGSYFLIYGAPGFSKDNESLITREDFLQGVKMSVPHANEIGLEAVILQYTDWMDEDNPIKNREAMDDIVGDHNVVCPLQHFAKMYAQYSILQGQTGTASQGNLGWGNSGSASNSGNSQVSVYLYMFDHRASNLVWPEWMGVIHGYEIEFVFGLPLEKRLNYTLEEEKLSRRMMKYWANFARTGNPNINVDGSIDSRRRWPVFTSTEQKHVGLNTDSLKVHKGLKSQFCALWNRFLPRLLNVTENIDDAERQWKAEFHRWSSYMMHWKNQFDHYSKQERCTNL
# T2 sequence (P22303 whole entry): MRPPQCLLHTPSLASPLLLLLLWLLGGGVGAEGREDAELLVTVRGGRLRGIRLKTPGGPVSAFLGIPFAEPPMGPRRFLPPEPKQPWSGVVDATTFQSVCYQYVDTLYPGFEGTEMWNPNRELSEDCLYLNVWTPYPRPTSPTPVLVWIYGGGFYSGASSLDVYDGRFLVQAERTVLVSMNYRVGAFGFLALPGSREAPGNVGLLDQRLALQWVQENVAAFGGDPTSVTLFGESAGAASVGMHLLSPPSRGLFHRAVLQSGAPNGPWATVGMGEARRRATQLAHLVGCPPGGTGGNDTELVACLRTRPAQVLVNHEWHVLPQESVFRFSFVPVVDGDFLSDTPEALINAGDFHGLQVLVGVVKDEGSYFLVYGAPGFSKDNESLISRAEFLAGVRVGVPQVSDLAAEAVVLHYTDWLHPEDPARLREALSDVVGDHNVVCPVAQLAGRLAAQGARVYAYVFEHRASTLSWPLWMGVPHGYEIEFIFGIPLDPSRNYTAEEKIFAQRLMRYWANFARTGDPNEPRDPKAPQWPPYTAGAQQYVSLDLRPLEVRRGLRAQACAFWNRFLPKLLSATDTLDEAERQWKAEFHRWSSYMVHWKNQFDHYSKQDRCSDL
# T4 sequence (P06276 whole entry): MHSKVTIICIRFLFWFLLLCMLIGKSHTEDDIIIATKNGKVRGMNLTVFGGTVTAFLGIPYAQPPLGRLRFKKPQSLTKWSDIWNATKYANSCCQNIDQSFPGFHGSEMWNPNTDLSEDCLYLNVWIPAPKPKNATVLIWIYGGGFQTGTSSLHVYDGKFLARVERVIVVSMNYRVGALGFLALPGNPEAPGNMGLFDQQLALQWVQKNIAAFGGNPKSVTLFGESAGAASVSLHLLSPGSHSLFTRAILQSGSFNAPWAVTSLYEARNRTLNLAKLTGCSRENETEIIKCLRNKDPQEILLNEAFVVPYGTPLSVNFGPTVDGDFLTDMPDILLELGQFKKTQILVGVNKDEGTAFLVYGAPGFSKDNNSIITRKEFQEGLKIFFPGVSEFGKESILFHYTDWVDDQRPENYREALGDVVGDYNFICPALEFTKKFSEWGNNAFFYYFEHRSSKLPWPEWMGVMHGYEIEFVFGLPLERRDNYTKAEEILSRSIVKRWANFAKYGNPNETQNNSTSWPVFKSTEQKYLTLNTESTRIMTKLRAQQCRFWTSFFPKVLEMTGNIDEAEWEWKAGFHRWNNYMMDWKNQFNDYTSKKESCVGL
# T5 sequence (P05067 whole entry): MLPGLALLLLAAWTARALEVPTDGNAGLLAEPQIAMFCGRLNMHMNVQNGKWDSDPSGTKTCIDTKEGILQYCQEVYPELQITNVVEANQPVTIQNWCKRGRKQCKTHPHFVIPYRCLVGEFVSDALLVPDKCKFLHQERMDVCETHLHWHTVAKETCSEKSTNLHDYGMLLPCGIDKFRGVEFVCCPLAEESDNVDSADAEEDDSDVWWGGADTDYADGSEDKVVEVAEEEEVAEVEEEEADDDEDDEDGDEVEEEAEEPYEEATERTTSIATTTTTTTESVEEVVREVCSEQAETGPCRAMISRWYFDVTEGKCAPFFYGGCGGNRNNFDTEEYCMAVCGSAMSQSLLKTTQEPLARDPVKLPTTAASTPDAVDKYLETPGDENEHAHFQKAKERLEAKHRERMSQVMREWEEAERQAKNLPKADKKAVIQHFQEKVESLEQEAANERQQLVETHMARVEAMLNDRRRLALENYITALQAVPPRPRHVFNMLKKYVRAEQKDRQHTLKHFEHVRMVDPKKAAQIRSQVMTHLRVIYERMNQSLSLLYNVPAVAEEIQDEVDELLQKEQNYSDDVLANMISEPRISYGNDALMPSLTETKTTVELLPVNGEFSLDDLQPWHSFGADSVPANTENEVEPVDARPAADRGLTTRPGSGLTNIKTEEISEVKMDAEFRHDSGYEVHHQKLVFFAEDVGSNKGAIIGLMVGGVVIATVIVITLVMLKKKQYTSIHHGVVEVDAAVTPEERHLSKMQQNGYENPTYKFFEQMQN
# Sequence of Carbonic anhydrase 1 (P00915 whole entry): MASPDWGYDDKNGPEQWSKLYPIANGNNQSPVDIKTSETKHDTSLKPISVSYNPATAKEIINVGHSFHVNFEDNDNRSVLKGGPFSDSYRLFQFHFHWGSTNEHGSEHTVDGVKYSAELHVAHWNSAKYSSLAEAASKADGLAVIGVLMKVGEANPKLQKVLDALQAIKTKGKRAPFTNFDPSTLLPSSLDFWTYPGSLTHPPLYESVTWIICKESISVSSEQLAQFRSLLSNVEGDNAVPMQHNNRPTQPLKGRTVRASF
# Sequence of Beta-secretase 1 (P56817 whole entry): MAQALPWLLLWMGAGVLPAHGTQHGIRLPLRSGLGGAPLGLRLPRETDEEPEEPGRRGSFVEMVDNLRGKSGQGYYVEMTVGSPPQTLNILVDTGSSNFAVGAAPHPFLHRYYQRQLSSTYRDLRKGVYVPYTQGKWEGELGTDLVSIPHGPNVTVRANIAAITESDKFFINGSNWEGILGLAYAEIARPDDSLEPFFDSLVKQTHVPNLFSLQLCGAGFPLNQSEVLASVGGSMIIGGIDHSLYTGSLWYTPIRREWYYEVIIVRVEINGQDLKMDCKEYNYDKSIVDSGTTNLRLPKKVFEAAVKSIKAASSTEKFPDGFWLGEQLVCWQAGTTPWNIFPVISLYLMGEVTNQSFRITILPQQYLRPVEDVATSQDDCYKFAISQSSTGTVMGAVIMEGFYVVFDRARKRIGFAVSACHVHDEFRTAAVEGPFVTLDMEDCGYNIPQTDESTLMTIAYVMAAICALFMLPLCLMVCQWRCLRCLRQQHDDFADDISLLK
structure (smiles),measurement,setting,value
Oc1ccc(/C=C/c2cc(O)cc(O)c2)cc1 [RESVERATROL],Activity,C2C12,110%
same,Activity,PC-12,81.23%
same,RC50,[1],1.43 µmol/mL
same,IC50,[2],31800 nM
same,RC50,[3],26.4 µmol/mL
same,RC50,[4],72.7 µmol/mL
same,EC50,Liver,7440 nM
Cc1ncc(/C=C/c2ccc(CN3CCCCC3)c(O)c2)c2c1OC(C)(C)OC2,Activity,[5],1.52 µM
same,IC50,[6],1500 nM
COc1cc(/C=C/c2cc(=O)oc3c2ccc2oc(-c4ccccc4)cc23)cc(OC)c1,IC50,Acetylcholinesterase [7],1800 nM
same,IC50,[8],13900 nM
same,IC50,Cholinesterase [9],3500 nM
NS(=O)(=O)c1ccc(/N=C/c2cc(Br)cc(Cl)c2O)cc1,Ki,Acetylcholinesterase [10],21 nM
same,Ki,Carbonic anhydrase 1,32.1 nM
same,Ki,Carbonic anhydrase 2,16 nM
Cc1ncc(/C=C/c2ccc(CN3CCOCC3)c(O)c2)c(CO)c1O,Activity,[5],1.52 µM
COc1cc(/C=C/c2cc(=O)oc3c2ccc2oc(-c4ccc(F)cc4)cc23)cc(OC)c1,IC50,Acetylcholinesterase [7],1800 nM
same,IC50,[8],13900 nM
same,IC50,Cholinesterase [9],3500 nM
Oc1ccc(/C=C/c2ccc(C(F)(F)F)cc2)cc1Cl,Activity,C2C12,150%
Cc1ncc(/C=C/c2ccc(CN3CCCCC3)c(O)c2)c(CO)c1O,Activity,[5],1.52 µM
same,IC50,[6],2110 nM
COc1ccc(-c2cc3c(ccc4c(/C=C/c5cc(OC)cc(OC)c5)cc(=O)oc43)o2)cc1,IC50,Acetylcholinesterase [7],1800 nM
same,IC50,[8],13900 nM
same,IC50,Cholinesterase [9],3500 nM
CCn1c2ccccc2c2cc(/C=C/c3ccc(NC(=S)NCCN4CCCC4)cc3)ccc21,IC50,Cholinesterase [11],1290 nM
same,IC50,Acetylcholinesterase [12],2640 nM
same,Activity,[13],86.1 µM
same,inhibition,[14],51.3%
COc1cc(/C=C/c2cc(=O)oc3c2ccc2oc(-c4ccc(Cl)cc4)cc23)cc(OC)c1,IC50,Acetylcholinesterase [7],1800 nM
same,IC50,[8],13900 nM
same,IC50,Cholinesterase [9],3500 nM
COc1cc(/C=C/c2cc(=O)oc3c2ccc2oc(-c4cc(OC)cc(OC)c4)cc23)cc(OC)c1,Activity,[15],6.8 µM
same,IC50,Acetylcholinesterase [7],2800 nM
same,IC50,Beta-secretase 1,15300 nM
same,IC50,[8],13900 nM
same,IC50,Cholinesterase [9],6300 nM
NS(=O)(=O)c1ccc(NCc2cccc(Cl)c2O)cc1,Ki,Acetylcholinesterase [10],21 nM
CCc1nc(/C=C/c2ccc(O)c(O)c2)ccc1O,EC50,Liver,2430 nM
COc1cc(/C=C/c2cc(=O)oc3c2ccc2oc(-c4cccc(F)c4)cc23)cc(OC)c1,IC50,Acetylcholinesterase [7],1800 nM
same,IC50,[8],13900 nM
same,IC50,Cholinesterase [9],3500 nM
NS(=O)(=O)c1ccc(NCc2cccc(Br)c2O)cc1,Activity,[16],4.2%
same,Ki,Acetylcholinesterase [10],77.7 nM
same,Activity,[17],74.5%
Clc1ccc(/C=N/c2ccc3cn[nH]c3c2)cc1Cl,IC50,[18],19500 nM
same,IC50,[2],1140 nM
same,IC50,[19],2600 nM
same,inhibition,[20],58.9%
NS(=O)(=O)c1ccc(/N=C/c2cc(Br)cc(Br)c2O)cc1,Ki,Acetylcholinesterase [10],21 nM
same,Ki,Acetylcholinesterase [21],2540 nM
same,Ki,Carbonic anhydrase 1,32.1 nM
COc1cc(/C=C/c2cc(=O)oc3c2ccc2oc(-c4cccc(Cl)c4)cc23)cc(OC)c1,IC50,Acetylcholinesterase [7],1800 nM
same,IC50,[8],13900 nM
same,IC50,Cholinesterase [9],3500 nM
COc1cc(/C=C/c2cc(=O)oc3c2ccc2oc(-c4ccc(C)cc4)cc23)cc(OC)c1,IC50,Acetylcholinesterase [7],1800 nM
same,IC50,[8],13900 nM
same,IC50,Cholinesterase [9],3500 nM
Oc1ccc(/N=C/c2ccc(O)c(O)c2O)cc1,RC50,[1],1.98 µmol/mL
same,RC50,[3],8.77 µmol/mL
same,RC50,[4],15.4 µmol/mL
CCN(CC)C[C@@H](O)COc1ccc(/C=C/c2cc(OC)cc(OC)c2)cc1,Activity,PC-12,74.9%
same,inhibition,[22],40.2%
same,Papp at 18 h,[23],8.12 ×10⁻⁶ cm/s
same,IC50,Acetylcholinesterase [24],24000 nM
